Assay results published in patent US20230149351A1, “TREATMENT OF SYMPTOMATIC VIRAL DISEASES” (SYNACT PHARMA ApS, priority 2020, published 2023).

Assays:
[1] = tested on: acute peritonitis induced by zymosan A; experiment: Zymosan A induced acute peritonitis in mice (peritoneal cytokines by ELISA, neutrophil counts by flow cytometry); format: in vivo, mice (C57BL/6J); conditions: 1 mg/kg intraperitoneal 30 minutes before zymosan A, sacrifice twelve hours later, N=6
Method: Acute peritonitis was induced by the injection of 1 mg zymosan A (Sigma-Aldrich) i.p. in 0.5 ml sterile PBS in mice. Twelve hours later the mice were sacrificed by CO2 exposure, and peritoneal cavities were washed with 4 ml ice-cold PBS containing 3 mM EDTA. Cells were stained with Turk’s solution (0.01% crystal violet in 3% acetic acid) and counted using a Neubauer hemocytometer or were stained with FITC-conjugated mAb for Ly-6G/Gr1, F4/80, and corresponding isotype controls (eBioscience, Hatfield, U.K.), and subjected to flow-cytometry analysis using a BD FACSCalibur platform (BD Biosciences, Oxford, U.K.).
Levels of IL-1β and IL-6 in quick frozen samples were quantified according to the manufacturer’s instructions using ELISA Ready-SET-Go! (eBioscience).
All animal studies were approved by and performed under the guidelines of the Ethical Committee for the Use of Animals, Barts and The London School of Medicine and Home Office regulations (Guidance on the Operation of Animals, Scientific Procedures Act, 1986). Male (7-8 wk old) C57BL/6J wild-type (WT) mice were purchased from Charles River Laboratories.
Test Item A, 1 mg/kg or vehicle treatment were given intraperitoneal 30 minutes before induction of the acute peritonitis. N=6 for in both groups.

[2] = tested on: Covid-19 induced pulmonary insufficiency; conditions: 100 mg once daily oral, add-on to standard therapy; 6 patients
Method: The initial open label part of the study was conducted in 6 patients referred to hospital with Covid-19 induced pulmonary insufficiency, defined as a need for supplementary oxygen to maintain normal saturation.

MC1R [3] = biological target: MC1R (Homo sapiens, UniProt Q01726); conditions: cited from earlier work
MC1R (Homo sapiens, UniProt Q01726), sequence (Q01726 whole entry, species assumed): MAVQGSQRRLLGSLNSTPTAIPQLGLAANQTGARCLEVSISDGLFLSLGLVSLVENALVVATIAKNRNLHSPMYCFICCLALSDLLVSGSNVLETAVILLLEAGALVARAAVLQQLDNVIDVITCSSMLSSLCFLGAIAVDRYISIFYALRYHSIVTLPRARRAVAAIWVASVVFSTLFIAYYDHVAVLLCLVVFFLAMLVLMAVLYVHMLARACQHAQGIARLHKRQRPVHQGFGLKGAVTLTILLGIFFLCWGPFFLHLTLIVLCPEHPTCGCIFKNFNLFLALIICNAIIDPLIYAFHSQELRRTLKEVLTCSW

MC1R [4] = conditions: cited from earlier work
MC3R = conditions: cited from earlier work
[5] = tested on: mouse primary macrophages; conditions: cited from earlier work
macrophages = conditions: cited from earlier work
melanocytes = conditions: cited from earlier work
peritonitis = conditions: oral; cited from earlier work
[6] = tested on: experimental inflammatory arthritis; conditions: oral; cited from earlier work

SMILES: NC(N)=N/N=C/C=C/c1cccn1-c1ccccc1[N+](=O)[O-] [AP1189, (E)-N-trans-{3-[1-(2-nitrophenyl)-1H-pyrrol-2-yl]-allylidene}-aminoguanidium acetate]
- reduction of neutrophil accumulation compared to vehicle [1]: 70%
- reduction of levels of pro-inflammatory cytokine IL-1β compared to pretreatment with vehicle ([1]; p<0.05 vs vehicle): 37%
- reduction of levels of pro-inflammatory cytokine IL-6 compared to pretreatment with vehicle ([1]; p<0.05 vs vehicle): 59%
- development of a need for more intensive pulmonary support [2]: none of them developed a need for more intensive pulmonary support
- safety and tolerability [2]: safe and well tolerated
- binding to MC1R (MC1R [3]): bind the MC1R
- ERK1/2 phosphorylation (MC1R) (MC1R [4]): cause ERK1/2 phosphorylation
- canonical cAMP generation (MC1R) (MC1R [4]): does not induce canonical cAMP generation
- type of agonism at MC1R (MC1R [4]): biased agonist
- ERK1/2 phosphorylation (MC3R) (MC3R): cause ERK1/2 phosphorylation
- canonical cAMP generation (MC3R) (MC3R): does not induce canonical cAMP generation
- type of agonism at MC3R (MC3R): biased agonist
- efferocytosis [5]: proefferocytic effect
- cytokine release (macrophages): reduce cytokine release
- melanogenesis (melanocytes): no melanogenesis was induced
- anti-inflammatory action in peritonitis (peritonitis): elicits anti-inflammatory actions
- resolution phase of peritonitis (peritonitis): accelerated the resolution phase
- macroscopic and histological parameters of joint disruption [6]: significant reduction
